{"source": "patent US20220411879A1", "about": "“COMPOSITIONS AND METHODS FOR REGULATING EGFR AMPLIFICATION IN CANCER CELLS FOR IMPROVING EFFICACY OF EGFR-TARGETED ANTI-CANCER AGENTS” (Institute for Cancer Research d/b/a The Research Institute …, priority 2019, published 2022)", "assay_type_in_all_cases": "cell-based, human", "key": {"RPE cells [1]": {"system": "RPE cells", "assay": "Trypan blue exclusion assay of EGFR inhibitor sensitivity in RPE cells", "conditions": "KDM5i (1 μM) and Gefitinib (2.5 μM), 72 hours", "quoted_text": "Control or stable KDM4A overexpression RPE cells were plated in 24 well tissue culture plates at a density of 5×10^3. […] Cells were stained with trypan blue solution (Sigma Aldrich) to assess cell viability and counted using a haemocytometer. Each condition was plated in triplicate wells and each well was counted in duplicate. An average was taken of all triplicates and used as a representative total.\nControl or stable KDM4A overexpression RPE cells were plated in 24 well tissue culture plates at a density of 8×10^3. […] Cells were stained with trypan blue solution (Sigma Aldrich) to assess cell viability and counted using a hemocytometer. Each condition was plated in triplicate wells and each well was counted in duplicate. An average was taken of all triplicates and used as a representative total.\nParental RPE cells are plated in 24 well tissue culture plates, in triplicate at a density of 5×10^3. […] Cells are cultured for a total of 72 hours under drug treatment conditions before being harvested, stained with trypan blue and counted using a haemocytometer."}, "RPE cells [2]": {"system": "RPE cells", "assay": "DNA FISH for EGFR DNA copy number in RPE cells", "procedure": "The FISH protocol was performed as described previously in Black et al. (2013). Briefly, cell suspensions were fixed in ice-cold methanol:glacial acetic acid (3:1) solution for a minimum of four hours, before being spun onto 8 Chamber Polystyrene vessel tissue culture treated glass slides (Falcon, Fisher Scientific), using a centrifuge at 900 rpm. The slides were air-dried and incubated in 2×SSC buffer for 2 min, followed by serial ethanol dilution (70%, 85% and 100%) incubations for 2 min each, for a total of 6 min. Air-dried slides were hybridized with probes that were diluted in appropriate buffer overnight at 37° C., following a 4 minute incubation on a heat block at 78° C. The slides were washed the next day for 3 to 4 mins in appropriate wash buffers at 69° C. with 0.4×SSC for Cytocell probes or commercially available Agilent wash buffer 1 followed by washing in 2×SSC with 0.05% Tween-20 (Cytocell probes) or commercially available Agilent wash buffer 2 (Agilent probes). The slides were incubated in 1 mg/mL DAPI solution made in 1% BSA-PBS, followed by a final 1×PBS wash. After the wash, the slides were mounted with ProLong Gold antifade reagent (Invitrogen).\nFISH images were acquired using an Olympus IX81 or Olympus IX83 spinning disk microscope at 40× magnification and analyzed using Slidebook 6.0 softwares. A minimum of 25 z-planes with 0.5 um step size was acquired for each field. Copy number gains for EGFR, 7 centromere (7C), 7p telomere (7p22.3), IKZF1 (7p12.2) and 8 centromere (8C) were scored in RPE cells as three or more foci. A minimum of 100 nuclei are scored for each independent experiment.\nFor hypoxia, EGF and KDM5i combinatorial experiments, RPE cells were pre-treated with 1 nM of KDM4 inhibitor exactly 24 hours prior to hypoxic exposure or EGF treatment. Immediately before transferring cells to hypoxia, or before drug or growth factor treatment, KDM4 inhibitor was supplemented to cells again at a concentration of 1 nM (double spike). Cells were then cultured in the respective conditions for 24 hours prior to harvesting for RNA, protein, cell cycle and DNA FISH analysis.\nRPE cells were treated with KDM5 inhibitor (C70) at a final concentration of 1 μM for a total treatment time of 48 hours. […]"}, "RPE cells [3]": {"system": "RPE cells", "assay": "Cell proliferation assay with EGF stimulation in RPE cells", "procedure": "Control, KDM4A overexpression or wild type parental RPE cells were plated at a density of 5×10^3 per well in a 6 well tissue culture plate. Each condition was plated in triplicate for each independent experiment. Cells were allowed to adhere for 16 hours before fresh complete media was added containing a final concentration of 50 ng/ml human recombinant EGF (Abcam). For control and KDM4A overexpression RPE cells, cells were harvested after 48 hours of EGF treatment and cell number calculated using a haemocytometer. For combinatorial drug experiments using parental RPE cells, EGF was added for 24 hours, following a 24 hour drug treatment with either KDM5i (1 μM) or EZH2i (3 μM).\nParental RPE cells were plated in 24 well tissue culture plates, in triplicate at a density of 5×10^3. Cells were allowed to adhere for approximately 16 hours before media was supplemented with EZH2 inhibitor (C24) at a final concentration of 3 μM. After an initial 24 hour treatment, human recombinant EGF was supplemented to each well at a final concentration of 50 ng/ml. After 48 hours of EGF treatment, cells were harvested and counted using a haemocytometer."}, "EGFR transcripts": {"system": "EGFR transcripts", "assay": "qPCR of EGFR transcripts in RPE cells", "conditions": "50 ng/ml EGF, 24 hours", "quoted_text": "Cells were washed and collected by trypsinization, followed by washing in PBS two times. Cell pellet was resuspended in Qiazol reagent (QIAGEN) and stored at −80° C. before further processing. Total RNA was extracted using miRNAeasy Mini Kit (QIAGEN) with an on-column DNase digestion according to the manufacturer's instructions. RNA was quantified using NanoDrop 2000 (Thermo Scientific). Single strand cDNA was prepared using Super Script IV first strand synthesis kit (Invitrogen) using random hexamers. Expression levels were analyzed using FastStart Universal SYBR Green Master (ROX) (Roche) according to the manufacturer's instructions on a LightCycler 480 PCR machine (Roche). Samples were normalized to β-actin."}, "RPE cells [4]": {"system": "RPE cells", "assay": "Scratch assay (cell migration) in RPE cells", "conditions": "KDM4A overexpressing RPE cells vs control, 50 ng/ml EGF, 24 hours", "procedure": "Control or stable KDM4A overexpression RPE cells were plated in 6 well tissue culture plates at a density of 2×10^5. Cells were allowed to adhere to plates for 24 hours. After 24 hours in culture, a p200 pipette tip was used to introduce a scratch wound in the centre of the well from the 12 o'clock to 6 o'clock position. Following the induction of the scratch wound, media was removed from each well and 1 ml of DMEM was used to rinse the wells, removing any cellular debris. After this wash, 3 ml of DMEM supplemented with vehicle or human recombinant EGF (Abcam) to a final concentration of 50 ng/ml, was added to each well. Cells were imaged at 0 hrs, 12 hrs and 24 hrs, using the EVOS imaging platform at 4× magnification. Scratch wound measurements were performed using the EVOS software with a minimum of 5 measurements taken at various locations, per scratch wound. All measurements were averaged. Each condition was performed in triplicate for each independent experiment."}, "KDM4A": {"system": "KDM4A", "assay": "Immunoblot of KDM4A protein levels in RPE cells", "conditions": "EGF 50 ng/ml, 24 hours", "procedure": "Cells were trypsinized and washed two times with PBS before resuspending in RIPA lysis buffer [50 mM Tris pH 7.4, 150 mM NaCl, 0.25% Sodium Deoxycholate, 1% NP40, 1 mM EDTA, 10% Glycerol] freshly supplemented with protease inhibitor and PhosSTOP phosphatase inhibitor cocktails (Roche). Cells were lysed on ice for 15 min and stored at −80° C. until further processing. Lysates were sonicated for 15 min (30 sec ON and 30 sec OFF cycle) at 70% amplitude in QSonica Q700 sonicator (Qsonica) followed by centrifugation at 12,000 rpm for 15 min. Cell lysate was transferred to a fresh tube and protein estimations were performed with Pierce BCA reagent (Thermo Scientific). Equal amounts of proteins were separated by SDS gel electrophoresis and transferred on nitrocellulose membrane (BioTrace NT, Pall Life Sciences) for at least 3 hr at a constant current. The membranes were blocked for at least 1 hr in 5% BSA-PBST (1×PBS with 0.5% Tween-20) or 5% milk-PBST and probed over night with specific antibodies as follows at the following dilutions: anti-GFP (Neuro mAb) (1:100); anti-β-Actin (1:10,000); anti-KDM4A (Neuro mAb) (1:100); anti-Flag (Sigma Aldrich) (1:500); anti-KDMSA (abcam) (1:500); anti-HALO (Promega) (1:1000); anti-Carbonic Anhydrase IX (Abcam) (1:1000). […]"}}}
{"molecule": "CCOC(=O)c1ccnc(CNCC(=O)N(CC)CCN(C)C)c1", "note": "[KDM5i, reference compound]", "values": [{"measurement": "percentage of cells (trypan blue exclusion) on co-treatment with Gefitinib", "setting": "RPE cells [1]", "result": "reduced the percentage of cells relative to controls and single agent treatment"}, {"measurement": "EGFR copy gains after drug removal (washout)", "setting": "RPE cells [2]; RPE cells, KDM5i 1 μM, 24 hrs after removal", "result": "returned to baseline"}, {"measurement": "EGFR copy gains", "setting": "RPE cells [2]; RPE cells, KDM5i (C70) 1 μM", "result": "promoted EGFR copy gains"}, {"measurement": "cell proliferation in response to EGF", "setting": "RPE cells [3]; RPE cells pre-treated with KDM5i (1 μM) 24 hours, then 50 ng/ml EGF 24 hours, compared to KDM5i alone", "result": "increased cell proliferation with supplemented EGF"}]}
{"molecule": "EGF: human recombinant EGF (Abcam), the preferred ligand of EGFR", "values": [{"measurement": "EGFR transcripts (qPCR)", "setting": "EGFR transcripts", "result": "increased EGFR transcripts"}, {"measurement": "cell migration (scratch assay)", "setting": "RPE cells [4]", "result": "migrate faster"}, {"measurement": "KDM4A protein levels", "setting": "KDM4A", "result": "does not impact KDM4A levels"}, {"measurement": "EGFR DNA copy number, EGF in KDM4A overexpressing cells", "setting": "RPE cells [2]; RPE cells stably overexpressing KDM4A, 50 ng/ml EGF, 24 hours", "result": "additive increases in EGFR DNA copy number"}, {"measurement": "EGFR copy number gains", "setting": "RPE cells [2]; RPE cells, 50 ng/ml EGF, 24 hours", "result": "significant copy number gains of the EGFR locus"}, {"measurement": "EGFR DNA copy number, EGF combined with hypoxia", "setting": "RPE cells [2]; RPE cells, hypoxia 24 hours then 50 ng/ml EGF under hypoxia 24 hours", "result": "modest but additive increase in EGFR DNA copy number"}, {"measurement": "cell proliferation", "setting": "RPE cells [3]; KDM4A overexpressing RPE cells vs control, 50 ng/ml EGF, 48 hours", "result": "proliferate faster"}]}
